Experimental data reported in ChEMBL document CHEMBL1201862, “PubChem BioAssay data set” (2004).
Calls of active or inactive are those of the source.

Columns and labels:
[1] = molecular target: T1, Adenosylmethionine-8-amino-7-oxononanoate aminotransferase (Mycobacterium tuberculosis, UniProt P9WQ81); assay: Mycobacterium tuberculosis BioA enzyme inhibitor Measured in Biochemical System Using Plate Reader - 2163-02_Inhibitor_Dose_CherryPick_Activity.; format: functional, Mycobacterium tuberculosis UT205
T1 sequence (P9WQ81 whole entry): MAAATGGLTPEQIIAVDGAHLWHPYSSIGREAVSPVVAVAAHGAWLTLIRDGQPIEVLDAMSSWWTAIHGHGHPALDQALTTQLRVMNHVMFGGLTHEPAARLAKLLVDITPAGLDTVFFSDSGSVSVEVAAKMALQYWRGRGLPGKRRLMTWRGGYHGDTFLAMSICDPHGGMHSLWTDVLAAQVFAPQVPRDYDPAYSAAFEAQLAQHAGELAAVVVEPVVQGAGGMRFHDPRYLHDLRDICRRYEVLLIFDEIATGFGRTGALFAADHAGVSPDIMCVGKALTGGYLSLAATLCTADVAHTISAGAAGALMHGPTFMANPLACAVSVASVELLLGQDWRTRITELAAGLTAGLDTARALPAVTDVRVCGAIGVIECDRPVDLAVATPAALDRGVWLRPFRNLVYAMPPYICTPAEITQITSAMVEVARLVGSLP

[2] = non-specific 3'UTR reporter inhibition in Clone20-Shn3RL – cell-based, Renilla luciferase, cherry-picked, counter-screen for Shn3 inhibitor project, dose response (AID 624133); format: functional
[3] = reduction of Shn3 3'UTR-driven luciferase in osteoblasts – cell-based, Clone20 osteoblasts, firefly luciferase, cherry-picked, dose response (AID 624132); format: functional;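 further: firefly luciferase luminescence from reporter carrying the Shn3 3'UTR in osteoblasts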
[4] = Counterscreen for activators of the function of SWI/SNF related, matrix associated, actin dependent regulator of chromatin, subfamily a, member 2 (SMARCA2, BRM): Luminescence-based cell-based high throughput dose response assay to identify non-selective compounds using the VP16 reporter assay.; format: functional
[5] = molecular target: SWI/SNF-related matrix-associated actin-dependent regulator of chromatin subfamily A member 2 (Homo sapiens, UniProt P51531); assay: Luminescence-based cell-based high throughput dose response assay to identify activators of the function of SWI/SNF related, matrix associated, actin dependent regulator of chromatin, subfamily a, member 2 (SMARCA2, BRM).; format: functional
SWI/SNF-related matrix-associated actin-dependent regulator of chromatin subfamily A member 2, sequence (P51531 whole entry, the tested form may be a part): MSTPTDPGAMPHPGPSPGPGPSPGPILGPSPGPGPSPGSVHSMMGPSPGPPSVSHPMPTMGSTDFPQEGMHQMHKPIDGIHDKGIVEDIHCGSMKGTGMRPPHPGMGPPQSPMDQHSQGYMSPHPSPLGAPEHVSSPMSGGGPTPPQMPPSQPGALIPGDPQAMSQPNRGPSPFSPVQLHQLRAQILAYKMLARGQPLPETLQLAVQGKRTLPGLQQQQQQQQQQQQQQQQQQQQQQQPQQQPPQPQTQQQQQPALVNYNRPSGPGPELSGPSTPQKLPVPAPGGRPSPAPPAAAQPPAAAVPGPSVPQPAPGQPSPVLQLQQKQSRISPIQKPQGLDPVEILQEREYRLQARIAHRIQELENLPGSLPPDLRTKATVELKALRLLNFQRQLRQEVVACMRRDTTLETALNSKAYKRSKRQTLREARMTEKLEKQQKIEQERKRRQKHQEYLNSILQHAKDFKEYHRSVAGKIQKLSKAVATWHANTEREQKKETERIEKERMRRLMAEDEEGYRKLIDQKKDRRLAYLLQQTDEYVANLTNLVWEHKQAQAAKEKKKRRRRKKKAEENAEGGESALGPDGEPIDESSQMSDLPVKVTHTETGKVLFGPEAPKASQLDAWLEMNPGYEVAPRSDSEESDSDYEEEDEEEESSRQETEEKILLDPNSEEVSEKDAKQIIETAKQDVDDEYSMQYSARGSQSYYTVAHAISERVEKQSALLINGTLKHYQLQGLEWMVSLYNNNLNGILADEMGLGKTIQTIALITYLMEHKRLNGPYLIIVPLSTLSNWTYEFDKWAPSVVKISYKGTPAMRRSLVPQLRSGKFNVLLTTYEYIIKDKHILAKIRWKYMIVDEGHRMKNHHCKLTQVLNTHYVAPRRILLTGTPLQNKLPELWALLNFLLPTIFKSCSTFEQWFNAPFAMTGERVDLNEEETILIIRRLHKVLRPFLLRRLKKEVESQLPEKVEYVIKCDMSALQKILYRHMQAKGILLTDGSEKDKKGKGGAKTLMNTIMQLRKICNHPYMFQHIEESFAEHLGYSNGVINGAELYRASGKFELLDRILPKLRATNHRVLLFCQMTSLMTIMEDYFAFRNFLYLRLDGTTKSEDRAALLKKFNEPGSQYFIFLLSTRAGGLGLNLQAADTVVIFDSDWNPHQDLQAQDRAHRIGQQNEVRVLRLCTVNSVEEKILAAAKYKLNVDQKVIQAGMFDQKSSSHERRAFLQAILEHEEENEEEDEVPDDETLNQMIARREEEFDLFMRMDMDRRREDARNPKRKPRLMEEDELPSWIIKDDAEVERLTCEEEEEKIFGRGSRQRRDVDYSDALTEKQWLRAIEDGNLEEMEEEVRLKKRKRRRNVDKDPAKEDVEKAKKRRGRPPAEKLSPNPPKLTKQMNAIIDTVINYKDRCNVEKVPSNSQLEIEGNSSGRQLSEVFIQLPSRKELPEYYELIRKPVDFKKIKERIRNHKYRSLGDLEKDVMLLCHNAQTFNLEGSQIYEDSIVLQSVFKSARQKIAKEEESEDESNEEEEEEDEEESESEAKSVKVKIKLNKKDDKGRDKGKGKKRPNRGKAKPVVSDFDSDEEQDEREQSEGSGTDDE

[6] = molecular target: T2, RNA-binding protein pos-1 (Caenorhabditis elegans, UniProt G5EF15); assay: disruptors of C. elegans POS-1 RNA interaction – biochemical, fluorescence polarization, dose response (AID 1964);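 further: purified POS-1 fused to maltose binding protein made in E. coli; potency of compounds blocking POS-1 binding to fluorescent RNA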
T2 sequence (G5EF15 whole entry): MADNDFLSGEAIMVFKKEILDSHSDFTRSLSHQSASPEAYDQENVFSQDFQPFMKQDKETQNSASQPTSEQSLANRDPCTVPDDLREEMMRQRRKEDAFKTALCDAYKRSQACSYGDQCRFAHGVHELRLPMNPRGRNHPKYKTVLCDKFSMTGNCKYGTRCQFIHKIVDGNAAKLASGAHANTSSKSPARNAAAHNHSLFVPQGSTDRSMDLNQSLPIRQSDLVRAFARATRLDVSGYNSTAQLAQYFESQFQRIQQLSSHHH

[7] = molecular target: T3, Carboxy-terminal domain RNA polymerase II polypeptide A small phosphatase 1 (Homo sapiens, UniProt Q9GZU7); assay: CTDSP1 inhibitors, concentration-response, biochemical, absorbance readout, ultra-high-throughput screen actives (AID 540297); format: functional
T3 sequence (Q9GZU7 whole entry): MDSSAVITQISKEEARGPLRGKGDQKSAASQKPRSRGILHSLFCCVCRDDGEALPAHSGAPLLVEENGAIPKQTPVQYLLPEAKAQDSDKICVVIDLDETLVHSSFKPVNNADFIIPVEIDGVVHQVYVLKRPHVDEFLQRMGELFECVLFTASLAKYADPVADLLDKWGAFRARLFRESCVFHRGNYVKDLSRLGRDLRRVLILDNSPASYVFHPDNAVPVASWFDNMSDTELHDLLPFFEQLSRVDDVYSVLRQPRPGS

Protein Tat = molecular target: T4, Protein Tat (Human immunodeficiency virus type 1 group M subtype B (isolate HXB2)(HIV-1), UniProt P04608); format: functional;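 further: tat binding to TAR RNA read out by fluorescence polarization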
T4 sequence (P04608 whole entry): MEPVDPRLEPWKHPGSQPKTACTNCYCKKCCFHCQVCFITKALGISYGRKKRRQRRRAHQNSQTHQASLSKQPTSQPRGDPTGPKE

Large T antigen = Large T antigen (Simian virus 40, UniProt P03070); format: functional, Betapolyomavirus macacae;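 further: Confirmatory-stage PubChem screen for compounds that inhibit SV40 T antigen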
Large T antigen, sequence (P03070 whole entry): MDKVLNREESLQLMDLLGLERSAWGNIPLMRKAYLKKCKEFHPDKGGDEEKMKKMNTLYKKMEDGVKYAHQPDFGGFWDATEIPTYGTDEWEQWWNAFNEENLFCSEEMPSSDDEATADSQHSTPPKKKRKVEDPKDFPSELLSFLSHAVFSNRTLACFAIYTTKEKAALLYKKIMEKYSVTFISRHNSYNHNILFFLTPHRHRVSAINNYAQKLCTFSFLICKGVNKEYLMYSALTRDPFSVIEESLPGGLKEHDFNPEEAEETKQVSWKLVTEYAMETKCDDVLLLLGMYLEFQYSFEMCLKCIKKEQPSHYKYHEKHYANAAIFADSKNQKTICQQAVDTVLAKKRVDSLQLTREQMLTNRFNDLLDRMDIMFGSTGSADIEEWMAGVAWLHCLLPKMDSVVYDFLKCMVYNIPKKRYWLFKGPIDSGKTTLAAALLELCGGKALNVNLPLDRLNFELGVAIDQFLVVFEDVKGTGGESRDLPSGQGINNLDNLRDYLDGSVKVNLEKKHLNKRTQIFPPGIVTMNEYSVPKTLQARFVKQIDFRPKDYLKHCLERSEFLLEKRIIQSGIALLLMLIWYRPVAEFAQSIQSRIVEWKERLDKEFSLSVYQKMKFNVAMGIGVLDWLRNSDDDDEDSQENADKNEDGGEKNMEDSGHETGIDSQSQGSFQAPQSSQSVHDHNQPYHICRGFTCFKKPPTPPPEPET

[8] = molecular target: DNA dC->dU-editing enzyme APOBEC-3G (Homo sapiens, UniProt Q9HC16); format: functional;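 further: Dose-response counterscreen measuring inhibition of APOBEC3G DNA deaminase activity, run while confirming APOBEC3A inhibitors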
DNA dC->dU-editing enzyme APOBEC-3G, sequence (Q9HC16 whole entry): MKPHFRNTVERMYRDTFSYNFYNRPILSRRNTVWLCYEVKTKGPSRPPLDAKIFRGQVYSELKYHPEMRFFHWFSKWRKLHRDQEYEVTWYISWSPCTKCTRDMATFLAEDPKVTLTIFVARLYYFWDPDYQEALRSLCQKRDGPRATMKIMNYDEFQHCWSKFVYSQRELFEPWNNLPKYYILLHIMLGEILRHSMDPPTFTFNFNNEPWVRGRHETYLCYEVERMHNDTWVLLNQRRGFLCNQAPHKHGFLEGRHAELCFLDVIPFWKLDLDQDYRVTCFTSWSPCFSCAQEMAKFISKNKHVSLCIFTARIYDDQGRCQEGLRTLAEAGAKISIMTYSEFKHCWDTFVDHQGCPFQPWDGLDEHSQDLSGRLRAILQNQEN

[9] = molecular target: T5, Zinc finger protein mex-5 (Caenorhabditis elegans, UniProt Q9XUB2); assay: potency of MEX-5 RNA-binding blockers – biochemical, C. elegans, fluorescence polarization, dose response (AID 1960)
T5 sequence (Q9XUB2 whole entry): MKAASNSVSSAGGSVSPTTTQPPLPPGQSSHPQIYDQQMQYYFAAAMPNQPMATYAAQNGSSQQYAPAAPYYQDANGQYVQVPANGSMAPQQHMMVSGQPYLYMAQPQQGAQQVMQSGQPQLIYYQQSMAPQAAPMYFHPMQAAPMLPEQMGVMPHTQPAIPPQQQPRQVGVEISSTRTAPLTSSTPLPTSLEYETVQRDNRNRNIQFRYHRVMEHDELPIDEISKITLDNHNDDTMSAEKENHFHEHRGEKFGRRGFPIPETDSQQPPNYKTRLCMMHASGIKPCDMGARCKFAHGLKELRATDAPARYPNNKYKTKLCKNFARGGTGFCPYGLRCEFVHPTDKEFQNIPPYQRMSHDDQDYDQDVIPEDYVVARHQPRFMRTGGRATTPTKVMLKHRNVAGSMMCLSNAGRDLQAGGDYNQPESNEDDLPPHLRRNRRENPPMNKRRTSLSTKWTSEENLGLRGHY

[10] = molecular target: DNA dC->dU-editing enzyme APOBEC-3A (Homo sapiens, UniProt P31941); assay: Dose Response confirmation of small molecule APOBEC3A DNA Deaminase Inhibitors via a fluorescence-based single-stranded DNA deaminase assay. [Related pubchem assays (depositor defined):AID493011, AID493024]; format: functional
DNA dC->dU-editing enzyme APOBEC-3A, sequence (P31941 whole entry): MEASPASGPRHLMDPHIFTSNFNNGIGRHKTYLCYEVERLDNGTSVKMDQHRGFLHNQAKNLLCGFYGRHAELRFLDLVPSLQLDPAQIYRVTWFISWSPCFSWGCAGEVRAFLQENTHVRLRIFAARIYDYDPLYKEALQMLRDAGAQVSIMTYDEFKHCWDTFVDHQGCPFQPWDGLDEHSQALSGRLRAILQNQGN

[11] = viability inhibitors of stage V gametocytes – luminescence, dose response (AID 1117278); format: functional, cell-based;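 further: gametocytes exposed to compound for 24 hours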
[12] = viability loss in human Jurkat cells – cell-based, luminescence, cytotoxicity control for P. falciparum gametocyte viability project, dose response (AID 1117277); format: functional;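 further: potency reflects loss of cellular ATP meaning fewer viable cells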
[13] = molecular target: T6, Corticotropin-releasing factor receptor 2/Corticotropin-releasing factor-binding protein (Homo sapiens, UniProt P24387+Q13324); assay: Dose Response confirmation of uHTS hits for small molecule antagonists of the CRF-binding protein and CRF-R2 receptor complex.; format: functional; settings: read-out: IC50_Mean
T6 sequence (Q13324 whole entry): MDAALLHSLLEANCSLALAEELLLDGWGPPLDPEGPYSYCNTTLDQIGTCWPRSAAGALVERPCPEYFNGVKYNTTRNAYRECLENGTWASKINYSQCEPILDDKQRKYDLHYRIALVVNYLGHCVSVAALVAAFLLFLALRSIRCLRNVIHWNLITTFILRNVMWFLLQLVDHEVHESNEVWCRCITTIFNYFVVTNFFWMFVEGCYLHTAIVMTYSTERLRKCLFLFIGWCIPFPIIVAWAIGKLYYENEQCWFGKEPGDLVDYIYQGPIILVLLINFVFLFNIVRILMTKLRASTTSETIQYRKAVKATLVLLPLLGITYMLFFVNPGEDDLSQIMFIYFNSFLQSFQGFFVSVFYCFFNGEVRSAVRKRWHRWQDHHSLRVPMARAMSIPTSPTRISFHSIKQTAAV
T6 sequence (P24387 whole entry): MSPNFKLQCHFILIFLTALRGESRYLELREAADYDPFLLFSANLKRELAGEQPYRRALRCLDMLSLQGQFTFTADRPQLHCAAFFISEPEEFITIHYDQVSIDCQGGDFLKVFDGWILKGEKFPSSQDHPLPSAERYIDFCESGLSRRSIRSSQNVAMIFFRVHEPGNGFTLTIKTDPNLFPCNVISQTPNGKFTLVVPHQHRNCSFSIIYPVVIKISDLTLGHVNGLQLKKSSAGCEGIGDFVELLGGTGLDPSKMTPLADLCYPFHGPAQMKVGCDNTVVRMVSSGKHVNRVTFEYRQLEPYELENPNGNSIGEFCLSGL

[14] = blockers of CRF-binding protein–CRF-R2 complex – cell-based, uHTS hits, 384-well, dose response (AID 651639); format: functional, Homo sapiens; settings: read-out: IC50_Mean
[15] = molecular target: T6, Corticotropin-releasing factor receptor 2/Corticotropin-releasing factor-binding protein; assay: activators of CRF receptor 2 with binding protein – uHTS hits, confirmation (AID 602473); format: functional; settings: read-out: EC50_Mean
[16] = molecular target: T7, Fructose-bisphosphate aldolase (Mycobacterium tuberculosis, UniProt P9WQA3); assay: Fluorescence-based biochemical high throughput dose response assay for inhibitors of the fructose-bisphosphate aldolase (FBA) of M. tuberculosis.; format: functional
T7 sequence (P9WQA3 whole entry): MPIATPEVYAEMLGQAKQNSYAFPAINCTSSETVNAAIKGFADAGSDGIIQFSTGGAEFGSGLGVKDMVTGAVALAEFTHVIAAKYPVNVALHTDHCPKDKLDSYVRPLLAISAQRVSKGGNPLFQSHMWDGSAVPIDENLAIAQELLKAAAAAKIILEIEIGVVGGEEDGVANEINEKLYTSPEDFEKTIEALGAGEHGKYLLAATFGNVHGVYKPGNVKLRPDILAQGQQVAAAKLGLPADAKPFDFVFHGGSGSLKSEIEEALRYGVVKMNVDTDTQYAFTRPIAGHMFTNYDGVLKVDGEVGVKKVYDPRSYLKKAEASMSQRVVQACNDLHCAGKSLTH

## COc1cccc(CNC(=O)c2ccc(NC(=O)C3=CSCCO3)cc2)c1
[1]
  AC50: 3.61 µM (active)

## CS(=O)(=O)c1ccc(C(=O)OCC(=O)N2CCOCC2)cc1[N+](=O)[O-]
[2]
  AC50: 27.9 µM (active)
[3]
  AC50: 17.5 µM (active)
[4]
  EC50: > 91.2 µM (inactive)
[5]
  EC50: > 91.2 µM (inactive)

## N#Cc1ccccc1CN1C(=O)S/C(=C/c2cccn2-c2cccc(C(=O)O)c2)C1=O
[6]
  EC50: > 300 µM (not active)
[7]
  IC50: 5.19 µM (active)
Protein Tat
  IC50: > 100 µM (active)
Large T antigen
  IC50: > 100 µM (active)
[8]
  IC50: 37 µM (active)
[9]
  EC50: > 300 µM (not active)
[10]
  IC50: 14.9 µM (active)

## O=C(Cn1cnc2c(oc3ccccc32)c1=O)N1CCCC1
[11]
  IC50: > 109 µM (inactive)
[12]
  IC50: > 83.4 µM (inactive)

## CC(=O)c1ccc(NC(=O)C2CC(=O)N(Cc3ccccc3)C2)cc1 (configuration not stated)
[1]
  AC50: 5.19 µM (active)

## CC(=O)c1ccc(-c2cnc3c(NC=O)cc(-c4ccc(N5CCN(C)CC5)cc4)cn23)cc1
[4]
  EC50: > 91.2 µM (inactive)
[5]
  EC50: 56 µM (inactive)

## COc1ccc(C(=O)NC(Oc2ccccc2)C(Cl)(Cl)Cl)cc1 (configuration not stated)
[13]
  IC50: 5.81 µM (active)
[14]
  IC50: 14.5 µM (active)
[15]
  EC50: > 53 µM (inactive)

## O=C(c1ccc(=O)oc1)N1CCCc2ccccc21
Protein Tat
  IC50: 5.02 µM (inconclusive)

## N=c1c(C(=O)NC2CCCCC2)cc2c(=O)n3ccccc3nc2n1Cc1ccco1
[16]
  IC50: 3.71 µM (active)
